Measurements taken from patent US6326378A, “Use of thiadiazolo[4,3-a]pyridine derivatives” (Roche Diagnostics GmbH, priority 1998, dated 2001).
Values after ≈ are worked out from the molar mass of the structure shown.

Legend:
PDE IV = PDE IV inhibition, isolated human enzyme preparations; assay type: biochemical; details: isolated human enzyme preparation
Method: (§1) The IC50 values of the compound from Example 2b were determined to be 2×10^-5 mol/l (PDE IV) and 8×10^-5 mol/l (PDE III) on isolated human enzyme preparations.

PDE III = PDE III inhibition, isolated human enzyme preparations; assay type: biochemical; details: isolated human enzyme preparation
Method: as §1

Peripheral leucocytes = test: Peripheral leucocytes, LPS, secretion of TNFα; assay type: cell-based; details: Leucocyte; stimulus LPS
Excerpt: (§2) The compound from Example 2b inhibits the activation of various types of leucocytes under different stimuli.

Lymphocytes [1] = test: Lymphocytes, ConA, thymidine incorporation; assay type: cell-based; details: Lymphocyte; stimulus ConA
Excerpt: as §2

Lymphocytes [2] = test: Lymphocytes, mixed lymphocytes reaction, thymidine incorporation; assay type: cell-based; details: Lymphocyte; stimulus mixed lymphocytes reaction
Excerpt: as §2

T Lymphoblasts = test: T Lymphoblasts, thymidine incorporation; assay type: cell-based; details: no stimulus
Excerpt: as §2

Basophilic granulocytes = test: Basophilic granulocytes, anti-IgE antibody, proteinase release; assay type: cell-based; details: stimulus anti-IgE antibody
Excerpt: as §2

Phagocytes (PMNs) = test: Phagocytes (PMNs), zymosan, chemiluminescence; assay type: cell-based; details: stimulus zymosan
Excerpt: as §2

conscious dogs (beagles) = test: Effect on heart rate and arterial blood pressure of conscious dogs; assay type: in vivo, dog; details: for DBP / MAP / SBP / HR: 24 mg/kg oral
Method: (§3) The behaviour of the dogs was normal.
Effect on heart rate and on arterial blood pressure
of conscious dogs after oral administration of 24 mg/kg of the compound of […]

dogs = test: Toxicity / tolerability in dogs; assay type: in vivo, dog
Excerpt: as §3

mice = test: Toxicity / tolerability in mice; assay type: in vivo, mouse; details: p.o. and i.p.
Excerpt: as §3

rats = test: Toxicity / tolerability in rats; assay type: in vivo, rat
Excerpt: as §3

guinea pigs = test: Toxicity / tolerability in guinea pigs; assay type: in vivo, guinea pig; details: p.o. and i.p.
Excerpt: as §3

[3] = conscious beagles, 24 mg/kg, up to 6 h after administration
[4] = conscious beagles, 24 mg/kg, observation period up to 6 h

c1ccn2c(=Nc3ccncc3)snc2c1 [Example 2b, 3-(4-Pyridinylimino)-3H-[1,2,4]thiadiazolo[4,3-a]pyridine]
IC50 (PDE IV): 20 µM | IC50 (PDE III): 80 µM | IC50 (Peripheral leucocytes): < 3 µg/mL | IC50 (Lymphocytes [1]): 2.8 µg/mL (≈ 12.3 µM) | IC50 (Lymphocytes [2]): 7.6 µg/mL (≈ 33.3 µM) | IC50 (T Lymphoblasts): 6.4 µg/mL (≈ 28 µM) | IC50 (Basophilic granulocytes): 10 µg/mL (≈ 43.8 µM) | IC50 (Phagocytes (PMNs)): 27 µg/mL (≈ 118 µM) | arterial blood pressure (conscious dogs (beagles); [3]): remained constant | heart rate (conscious dogs (beagles); [3]): remained constant | DBP (conscious dogs (beagles); edible oil + 2% DMSO, 30 min, preliminary value 66): 63 mmHg | MAP (conscious dogs (beagles); edible oil + 2% DMSO, 30 min, preliminary value 111): 113 mmHg | SBP (conscious dogs (beagles); edible oil + 2% DMSO, 30 min, preliminary value 171): 181 mmHg | DBP (conscious dogs (beagles); edible oil + 2% DMSO, 60 min, preliminary value 66): 57 mmHg | HR (conscious dogs (beagles); edible oil + 2% DMSO, 60 min, preliminary value 79): 82 beats/min | MAP (conscious dogs (beagles); edible oil + 2% DMSO, 60 min, preliminary value 111): 109 mmHg | SBP (conscious dogs (beagles); edible oil + 2% DMSO, 60 min, preliminary value 171): 178 mmHg | DBP (conscious dogs (beagles); edible oil + 2% DMSO, 90 min, preliminary value 66): 58 mmHg | HR (conscious dogs (beagles); edible oil + 2% DMSO, 90 min, preliminary value 79): 86 beats/min | MAP (conscious dogs (beagles); edible oil + 2% DMSO, 90 min, preliminary value 111): 107 mmHg | SBP (conscious dogs (beagles); edible oil + 2% DMSO, 90 min, preliminary value 171): 173 mmHg | DBP (conscious dogs (beagles); edible oil + 2% DMSO, 120 min, preliminary value 66): 60 mmHg | HR (conscious dogs (beagles); edible oil + 2% DMSO, 120 min, preliminary value 79): 82 beats/min | MAP (conscious dogs (beagles); edible oil + 2% DMSO, 120 min, preliminary value 111): 109 mmHg | SBP (conscious dogs (beagles); edible oil + 2% DMSO, 120 min, preliminary value 171): 175 mmHg | DBP (conscious dogs (beagles); edible oil + 2% DMSO, 150 min, preliminary value 66): 63 mmHg | HR (conscious dogs (beagles); edible oil + 2% DMSO, 150 min, preliminary value 79): 82 beats/min | MAP (conscious dogs (beagles); edible oil + 2% DMSO, 150 min, preliminary value 111): 113 mmHg | SBP (conscious dogs (beagles); edible oil + 2% DMSO, 150 min, preliminary value 171): 179 mmHg | DBP (conscious dogs (beagles); edible oil + 2% DMSO, 180 min, preliminary value 66): 66 mmHg | HR (conscious dogs (beagles); edible oil + 2% DMSO, 180 min, preliminary value 79): 87 beats/min | MAP (conscious dogs (beagles); edible oil + 2% DMSO, 180 min, preliminary value 111): 114 mmHg | SBP (conscious dogs (beagles); edible oil + 2% DMSO, 180 min, preliminary value 171): 179 mmHg | DBP (conscious dogs (beagles); edible oil + 2% DMSO, 210 min, preliminary value 66): 68 mmHg | HR (conscious dogs (beagles); edible oil + 2% DMSO, 210 min, preliminary value 79): 86 beats/min | MAP (conscious dogs (beagles); edible oil + 2% DMSO, 210 min, preliminary value 111): 114 mmHg | SBP (conscious dogs (beagles); edible oil + 2% DMSO, 210 min, preliminary value 171): 174 mmHg | DBP (conscious dogs (beagles); edible oil + 2% DMSO, 240 min, preliminary value 66): 64 mmHg | HR (conscious dogs (beagles); edible oil + 2% DMSO, 240 min, preliminary value 79): 93 beats/min | MAP (conscious dogs (beagles); edible oil + 2% DMSO, 240 min, preliminary value 111): 109 mmHg | SBP (conscious dogs (beagles); edible oil + 2% DMSO, 240 min, preliminary value 171): 169 mmHg | DBP (conscious dogs (beagles); edible oil + 2% DMSO, 300 min, preliminary value 66): 65 mmHg | HR (conscious dogs (beagles); edible oil + 2% DMSO, 300 min, preliminary value 79): 92 beats/min | MAP (conscious dogs (beagles); edible oil + 2% DMSO, 300 min, preliminary value 111): 110 mmHg | SBP (conscious dogs (beagles); edible oil + 2% DMSO, 300 min, preliminary value 171): 169 mmHg | DBP (conscious dogs (beagles); edible oil + 2% DMSO, 360 min, preliminary value 66): 70 mmHg | HR (conscious dogs (beagles); edible oil + 2% DMSO, 360 min, preliminary value 79): 91 beats/min | MAP (conscious dogs (beagles); edible oil + 2% DMSO, 360 min, preliminary value 111): 115 mmHg | SBP (conscious dogs (beagles); edible oil + 2% DMSO, 360 min, preliminary value 171): 174 mmHg | HR (conscious dogs (beagles); edible oil + 2% DMSO, 1 ml/kg, 30 min, preliminary value 79, average n=5): 117 beats/min | DBP (conscious dogs (beagles); methyl cellulose 1% + 2% DMSO, 30 min, preliminary value 70): 65 mmHg | MAP (conscious dogs (beagles); methyl cellulose 1% + 2% DMSO, 30 min, preliminary value 114): 114 mmHg | SBP (conscious dogs (beagles); methyl cellulose 1% + 2% DMSO, 30 min, preliminary value 172): 179 mmHg | DBP (conscious dogs (beagles); methyl cellulose 1% + 2% DMSO, 60 min, preliminary value 70): 66 mmHg | HR (conscious dogs (beagles); methyl cellulose 1% + 2% DMSO, 60 min, preliminary value 83): 79 beats/min | MAP (conscious dogs (beagles); methyl cellulose 1% + 2% DMSO, 60 min, preliminary value 114): 114 mmHg | SBP (conscious dogs (beagles); methyl cellulose 1% + 2% DMSO, 60 min, preliminary value 172): 178 mmHg | DBP (conscious dogs (beagles); methyl cellulose 1% + 2% DMSO, 90 min, preliminary value 70): 63 mmHg | HR (conscious dogs (beagles); methyl cellulose 1% + 2% DMSO, 90 min, preliminary value 83): 83 beats/min | MAP (conscious dogs (beagles); methyl cellulose 1% + 2% DMSO, 90 min, preliminary value 114): 110 mmHg | SBP (conscious dogs (beagles); methyl cellulose 1% + 2% DMSO, 90 min, preliminary value 172): 172 mmHg | DBP (conscious dogs (beagles); methyl cellulose 1% + 2% DMSO, 120 min, preliminary value 70): 64 mmHg | HR (conscious dogs (beagles); methyl cellulose 1% + 2% DMSO, 120 min, preliminary value 83): 80 beats/min | MAP (conscious dogs (beagles); methyl cellulose 1% + 2% DMSO, 120 min, preliminary value 114): 111 mmHg | SBP (conscious dogs (beagles); methyl cellulose 1% + 2% DMSO, 120 min, preliminary value 172): 173 mmHg | DBP (conscious dogs (beagles); methyl cellulose 1% + 2% DMSO, 150 min, preliminary value 70): 64 mmHg | HR (conscious dogs (beagles); methyl cellulose 1% + 2% DMSO, 150 min, preliminary value 83): 81 beats/min | MAP (conscious dogs (beagles); methyl cellulose 1% + 2% DMSO, 150 min, preliminary value 114): 112 mmHg | SBP (conscious dogs (beagles); methyl cellulose 1% + 2% DMSO, 150 min, preliminary value 172): 175 mmHg | DBP (conscious dogs (beagles); methyl cellulose 1% + 2% DMSO, 180 min, preliminary value 70): 65 mmHg | HR (conscious dogs (beagles); methyl cellulose 1% + 2% DMSO, 180 min, preliminary value 83): 76 beats/min | MAP (conscious dogs (beagles); methyl cellulose 1% + 2% DMSO, 180 min, preliminary value 114): 114 mmHg | SBP (conscious dogs (beagles); methyl cellulose 1% + 2% DMSO, 180 min, preliminary value 172): 178 mmHg | DBP (conscious dogs (beagles); methyl cellulose 1% + 2% DMSO, 210 min, preliminary value 70): 63 mmHg | HR (conscious dogs (beagles); methyl cellulose 1% + 2% DMSO, 210 min, preliminary value 83): 84 beats/min | MAP (conscious dogs (beagles); methyl cellulose 1% + 2% DMSO, 210 min, preliminary value 114): 109 mmHg | SBP (conscious dogs (beagles); methyl cellulose 1% + 2% DMSO, 210 min, preliminary value 172): 169 mmHg | DBP (conscious dogs (beagles); methyl cellulose 1% + 2% DMSO, 240 min, preliminary value 70): 62 mmHg | HR (conscious dogs (beagles); methyl cellulose 1% + 2% DMSO, 240 min, preliminary value 83): 74 beats/min | MAP (conscious dogs (beagles); methyl cellulose 1% + 2% DMSO, 240 min, preliminary value 114): 108 mmHg | SBP (conscious dogs (beagles); methyl cellulose 1% + 2% DMSO, 240 min, preliminary value 172): 167 mmHg | DBP (conscious dogs (beagles); methyl cellulose 1% + 2% DMSO, 300 min, preliminary value 70): 62 mmHg | HR (conscious dogs (beagles); methyl cellulose 1% + 2% DMSO, 300 min, preliminary value 83): 77 beats/min | MAP (conscious dogs (beagles); methyl cellulose 1% + 2% DMSO, 300 min, preliminary value 114): 108 mmHg | SBP (conscious dogs (beagles); methyl cellulose 1% + 2% DMSO, 300 min, preliminary value 172): 169 mmHg | DBP (conscious dogs (beagles); methyl cellulose 1% + 2% DMSO, 360 min, preliminary value 70): 65 mmHg | HR (conscious dogs (beagles); methyl cellulose 1% + 2% DMSO, 360 min, preliminary value 83): 75 beats/min | MAP (conscious dogs (beagles); methyl cellulose 1% + 2% DMSO, 360 min, preliminary value 114): 110 mmHg | SBP (conscious dogs (beagles); methyl cellulose 1% + 2% DMSO, 360 min, preliminary value 172): 170 mmHg | HR (conscious dogs (beagles); methyl cellulose 1% + 2% DMSO, 1 ml/kg, 30 min, preliminary value 83, average n=5): 85 beats/min | behaviour of the dogs (dogs; conscious beagles, 24 mg/kg): normal | emetic action (dogs; conscious beagles, 24 mg/kg): not detectable | blood glucose (dogs; [4]): remained unchanged | triglycerides (dogs; [4]): remained unchanged | tolerability (dogs; dogs, p.o.): well tolerated | GPT (dogs; sign of liver damage, conscious beagles, 24 mg/kg, observation period up to 6 h): remained unchanged | tolerability (mice): well tolerated | side effects (behaviour, body weight, histology, haematological and clinicochemical parameters) (rats; after 2 weeks, 40 mg/kg daily): not possible to determine any side effects | tolerability (rats; p.o. and i.p.): well tolerated | tolerability (guinea pigs): well tolerated
